Measured values published in patent US6875760B2 (Novo Nordisk A/S, priority 1999, dated 2005).

Target: T1, cloned human glucagon receptor (Homo sapiens, UniProt P47871)
T1 construct: expressed in transfected cells; plasma membrane preparation
Test: Glucagon Binding Assay (II)
Details: plasma membranes of BHK cells expressing the receptor; read-out: Glu Bd Assay (II) IC50

T1 sequence (P47871 26-477): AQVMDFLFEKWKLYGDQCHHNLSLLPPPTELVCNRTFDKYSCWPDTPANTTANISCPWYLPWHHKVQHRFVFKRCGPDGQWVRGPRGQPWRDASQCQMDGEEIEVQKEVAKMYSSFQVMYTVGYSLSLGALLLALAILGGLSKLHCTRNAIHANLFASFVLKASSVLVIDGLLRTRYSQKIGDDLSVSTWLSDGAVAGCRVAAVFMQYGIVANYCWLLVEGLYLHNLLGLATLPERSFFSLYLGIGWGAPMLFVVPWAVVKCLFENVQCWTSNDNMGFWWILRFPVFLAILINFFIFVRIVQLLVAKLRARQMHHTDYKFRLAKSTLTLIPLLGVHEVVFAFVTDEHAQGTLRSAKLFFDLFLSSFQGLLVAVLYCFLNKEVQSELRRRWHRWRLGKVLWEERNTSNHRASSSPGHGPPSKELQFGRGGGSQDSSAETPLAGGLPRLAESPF

Row | IC50 | SMILES
1 | 687 nM | CC(C)(C)C1CCC(N(Cc2ccc(C(=O)NCCC(=O)O)cc2)C(=O)CNC(=O)OCC2c3ccccc3-c3ccccc32)CC1 (stereo not drawn)
2 | 153 nM | O=C(O)CCNC(=O)c1ccc(CN(C(=O)NCc2cc(Cl)cc(Cl)c2)c2ccc(C3CCCCC3)cc2)cc1 [Example 395, 3-{4-[1-(4-Cyclohexylphenyl)-3-(3,5-dichlorobenzyl)ureidomethyl]benzoylamino}propionic acid]
3 | 426 nM | O=C(O)CCNC(=O)c1ccc(CN(C(=O)Nc2ccc(OC(F)(F)F)cc2)C2CCC3CCCCC3C2)cc1 (stereo not drawn) [drawing 1173]
4 | 541 nM | CC(C)(C)[C@H]1CC[C@@H](N(Cc2ccc(C(=O)NCCC(=O)O)cc2)NC(=O)c2ccc(F)c(F)c2)CC1 [Example 589, 3-{4-[N-(cis-4-tert-Butylcyclohexyl)-N′-(3,4-difluorobenzoyl)hydrazinomethyl]benzoylamino}propionic acid]
5 | 23 nM | CC(C)(C)C1CCC(N(Cc2ccc(C(=O)NCc3nn[nH]n3)cc2)C(=O)Nc2cc(Cl)cc(Cl)c2)CC1 (stereo not drawn) [Example 173, 4-[1-(4-tert-Butylcyclohexyl)-3-(3,5-dichlorophenyl)ureidomethyl]-N-(2H-tetrazol-5-ylmethyl)benzamide]
6 | 18 nM | O=C(O)CCNC(=O)c1ccc(CN(C(=O)Nc2ccc(OC(F)(F)F)cc2)C2CCC(C3CCCCC3)CC2)cc1 (stereo not drawn) [Example 577, 3-{4-[1-(4-Cyclohexylcyclohexyl)-3-(4-trifluoromethoxyphenyl)ureidomethyl]benzoylamino}propionic acid]
7 | 677 nM | C[C@@H](NC(=O)N(Cc1ccc(C(=O)NCCC(=O)O)cc1)c1ccc(C2CCCCC2)cc1)c1ccccc1 [Example 608, 3-{4-[1-(4-Cyclohexylphenyl)-3-((1R)-1-phenylethyl)ureidomethyl]benzoylamino}propionic acid]
8 | 75 nM | CC(C)(C)[C@H]1CC[C@@H](N(Cc2ccc(C(=O)NCCC(=O)O)cc2)NC(=O)c2cc(Cl)cc(Cl)c2)CC1 [Example 588, 3-{4-[N-(cis-4-tert-Butylcyclohexyl)-N′-(3,5-dichlorobenzoyl)hydrazinomethyl]benzoylamino}propionic acid]
9 | 578 nM | CC(C)(C)[C@H]1CC[C@H](N(Cc2ccc(C(=O)NCCC(=O)O)cc2)Cc2cccc(S(C)(=O)=O)c2)CC1 [Example 613, 3-(4-{[(trans-4-tert-Butylcyclohexyl)-(3-methylsulfonylbenzyl)amino]methyl}benzoylamino)propionic acid]
10 | 108 nM | O=C(O)CCNC(=O)c1ccc(CN(Cc2cc(Cl)cc(Cl)c2)c2ccc(C3CCCCC3)cc2)cc1 [Example 582, 3-(4-{[(4-Cyclohexylphenyl)-(3,5-dichlorobenzyl)amino}methyl]benzoylamino)propionic acid]

Further lines, the molecule ahead of its results:

Row | SMILES | IC50
11 | O=C(Nc1nn[nH]n1)c1ccc(CN(C(=O)Nc2ccc3c(c2)OC(F)(F)C(F)(F)O3)c2ccc(C3CCCCC3)cc2)cc1 [Example 396, 4-[1-(4-Cyclohexylphenyl)-3-(2,2,3,3-tetrafluoro-2,3-dihydrobenzo[1,4]dioxin-6-yl)ureidomethyl]-N-(2H-tetrazol-5-yl)benzamide] | 13 nM
12 | C[C@@H](NC(=O)N(Cc1ccc(C(=O)Nc2nn[nH]n2)cc1)c1ccc(C2CCCCC2)cc1)c1ccccc1 [Example 598, 4-[1-(4-Cyclohexylphenyl)-3-((1R)-1-phenylethyl)ureidomethyl]-N-(2H-tetrazol-5-yl)benzamide] | 207 nM
13 | O=C(O)CCNC(=O)c1ccc(CN(C(=O)Nc2ccc(OC(F)(F)F)cc2)C2Cc3ccccc3C2)cc1 [Example 137, 3-{4-[1-(1-Indan-2-yl)-3-(4-trifluoromethoxyphenyl)ureidomethyl]benzoylamino)propionic acid] | 360 nM
14 | O=C(O)CCNC(=O)c1ccc(CN(CCC(c2ccccc2)c2ccccc2)Cc2ccc3c(c2)OCO3)cc1 [Example 155, 3-(4-{[(3,3-Diphenylpropyl)-(3,4-methylenedioxybenzyl)amino]methyl}benzoylamino)propionic acid] | 823 nM
15 | O=C(Nc1nn[nH]n1)c1ccc(CN(C(=O)Nc2cc(Cl)cc(Cl)c2)c2ccc(C3=CCCCC3)cc2)cc1 [Example 593, 4-[1-(4-Cyclohex-1-enylphenyl)-3-(3,5-dichlorophenyl)ureidomethyl]-N-(2H-tetrazol-5-yl)benzamide] | 8 nM

Same assay, conditions: screened at 1 μM; library compounds; read-out: displacement of the glucagon tracer when screened at 1 μM concentration in the glucagon binding assay II

Row | inhibition at 1 µM | SMILES
16 | > 50% | CC(C)(C)C1CCC(N(Cc2ccc(C(=O)NCCC(=O)O)cc2)C(=O)Nc2ccc(Br)cc2)CC1 (stereo not drawn) [Example 133, 3-{4-[3-(4-Bromophenyl)-1-(4-tert-butylcyclohexyl)ureidomethyl]benzoylamino)propionic acid]
17 | > 50% | CC(C)(C)C1CCC(N(Cc2ccc(OCCCC(=O)O)cc2)C(=O)Nc2ccc(OC(F)(F)F)cc2)CC1 (stereo not drawn) [Example 224, 4-{4-[1-(4-tert-Butylcyclohexyl)-3-(4-trifluoromethoxyphenyl)ureidomethyl]phenoxy}butyric acid]
18 | > 50% | O=C(O)CCNC(=O)c1ccc(CN(C(=O)Nc2ccc(Cl)c(C(F)(F)F)c2)C2CCC(NC(=O)C(F)(F)F)CC2)cc1 (stereo not drawn) [Example 192, 3-(4-{3-(4-Chloro-3-trifluoromethylphenyl)-1-[4-(2,2,2-trifluoroacetylamino)cyclohexyl]ureidomethyl}benzoylamino)propionic acid]
19 | > 50% | CC(C)(C)C1CCC(N(Cc2ccc(C(=O)Nc3ccc4c(c3)C(=O)NC4=O)cc2)C(=O)Nc2cc(Cl)cc(Cl)c2)CC1 (stereo not drawn) [Example 171, 4-[1-(4-tert-Butylcyclohexyl)-3-(3,5-dichlorophenyl)ureidomethyl]-N-(1,3-dioxo-2,3-dihydro-1H-isoindol-5-yl)benzamide]
20 | > 50% | CC(C)(C)C1CCC(N(Cc2ccc(C(=O)Nc3ccc4c(c3)OCCO4)cc2)C(=O)Nc2ccc(OC(F)(F)F)cc2)CC1 (stereo not drawn) [Example 161, 4-[1-(4-tert-Butylcyclohexyl)-3-(4-trifluoromethoxyphenyl)ureidomethyl]-N-(2,3-dihydro-1,4-benzodioxin-6-yl)benzamide]
21 | > 50% | CC(C)(C)C1CCC(N(Cc2ccc(C(=O)Nc3ccc4c(c3)OCCO4)cc2)C(=O)Nc2ccc(Cl)cc2)CC1 (stereo not drawn) [Example 160, 4-[1-(4-tert-Butylcyclohexyl)-3-(4-chlorophenyl)ureidomethyl]-N-(2,3-dihydro-1,4-benzodioxin-6-yl)benzamide]
22 | > 50% | CC(C)(C)C1CCC(N(Cc2ccc(C(=O)NCCC(=O)O)cc2)C(=O)Nc2cccc(SC(F)(F)F)c2)CC1 (stereo not drawn) [Example 199, 3-{4-[1-(4-tert-Butylcyclohexyl)-3-(3-trifluoromethylsulfanylphenyl)ureidomethyl]benzoylamino}propionic acid]
23 | > 50% | CC(C)(C)C1CCC(N(Cc2cccc(C(=O)NCCC(=O)O)c2)C(=O)Nc2cc(Cl)cc(Cl)c2)CC1 (stereo not drawn) [Example 135, 3-{3-[1-(4-tert-Butylcyclohexyl)-3-(3,5-dichlorophenyl)ureidomethyl]benzoylamino)propionic acid]

Continued, molecule first:

Row | SMILES | inhibition at 1 µM
24 | O=C(O)CCNC(=O)c1ccc(CN(C(=O)Nc2cccc(SC(F)(F)F)c2)c2ccc(C3CCCCC3)cc2)o1 [Example 210, 3-({5-[1-(4-cyclohexylphenyl)-3-(3-trifluoromethylsulfanylphenyl)ureidomethyl]furan-2-carbonyl}amino)propionic acid] | > 50%
25 | O=C(O)CCNC(=O)c1ccc(CN(Cc2ccccc2OC(F)(F)F)C(=O)Nc2ccc3ccccc3c2)s1 [Example 124, 3-{5-[1-(2-Trifluoromethoxybenzyl)-3-naphthalene-2-ylureidomethyl]thiophene-2-carbonylamino)propionic acid] | > 50%
26 | COc1ccc(CN(Cc2ccc(C(=O)NCCC(=O)O)cc2)Cc2ccc(C(C)C)cc2)cc1OC [Example 149, 3-(4-{[(3,4-Dimethoxybenzyl)-(4-isopropylbenzyl)amino]methyl}benzoylamino)propionic acid] | > 50%
27 | O=C(O)CCNC(=O)c1ccc(CN(Cc2ccc(C(F)(F)F)cc2)C(=O)Nc2ccc(SC(F)(F)F)cc2)s1 [Example 131, 3-{5-[1-(4-Trifluoromethylbenzyl)-3-(4-trifluoromethylsulfanylphenyl)ureidomethyl]thiophene-2-carbonylamino)propionic acid] | > 50%
28 | O=C(O)CCCOc1ccc(CN(C(=O)Nc2ccc(Cl)c(C(F)(F)F)c2)c2ccc(C3CCCCC3)cc2)cc1 [Example 217, 4-{4-[3-(4-Chloro-3-trifluoromethylphenyl)-1-(4-cyclohexylphenyl)ureidomethyl]phenoxy}butyric acid] | > 50%
29 | O=C(O)CCNC(=O)c1ccc(CN(Cc2ccccc2OC(F)(F)F)C(=O)Nc2ccc3ccccc3c2)cc1 [Example 115, 3-{4-[1-(2-Trifluoromethoxybenzyl)-3-naphthalene-2-ylureidomethyl]benzoylamino)propionic acid] | > 50%
30 | O=C(O)CCNC(=O)c1ccc(CN(C(=O)NCOc2ccc3ccccc3c2)c2ccc3c(c2)OC(F)(F)C(F)(F)O3)cc1 [Example 205, 3-{4-[3-(Naphthalen-2-yloxymethyl)-1-(2,2,3,3-tetrafluoro-2,3-dihydro-benzo[1,4]dioxin-6-yl)ureidomethyl]benzoylamino}propionic acid] | > 50%
31 | CC(C)(C)C1CCC(N(Cc2ccc(C(=O)Nc3ncnc4[nH]ncc34)cc2)C(=O)Nc2ccc(OC(F)(F)F)cc2)CC1 (stereo not drawn) [Example 165, 4-[1-(4-tert-Butylcyclohexyl)-3-(4-trifluoromethoxyphenyl)ureidomethyl]-N-(1H-pyrazolo[3,4-d]pyrimidin-4-yl)benzamide] | > 50%
32 | O=C(O)CCNC(=O)c1ccc(CN(CCc2cccc(Cl)c2)C(=O)Nc2ccc(OC(F)(F)F)cc2)cc1 [Example 180, 3-{4-[1-[2-(3-Chlorophenyl)ethyl]-3-(4-trifluoromethoxyphenyl)ureidomethyl]benzoylamino}propionic acid] | > 50%
33 | CCCCOc1ccc(NC(=O)N(Cc2ccc(C(=O)NCCC(=O)O)cc2)Cc2ccc(C(F)(F)F)cc2)cc1 [Example 119, 3-{4-[1-(4-Trifluoromethylbenzyl)-3-(4-butoxyphenyl)ureidomethyl]benzoylamino)propionic acid] | > 50%
